Values quoted from earlier work as cited in patent publication US6730813B2, “Method for producing n-(phosphonomethyl) glycine” (Monsanto Technology LLC, priority 2000, dated 2004).
Like-named read-outs stand apart in the source and are kept apart here.

For `O=C(O)CNCP(=O)(O)O` [glyphosate, N-(phosphonomethyl)glycine], the “solubility in organic solvents” value (organic solvents, compared with water) is listed as “much lower”, the solubility in water (5° C.) is listed as 0.8% and the solubility in water (20° C.) is listed as 1.1%. The solubility in water (95° C.) was 6.5%.
